For data set [1], the system named is P. falciparum Pf3D70087/N9. As to the kind of experiment: Therapeutic efficacy in SCID mouse P. falciparum model. The class given is in vivo, Plasmodium falciparum. Conditions: single dose 50 mg/kg i.p. An excerpt:
589 by genomic sequencing and were routinely tested for mycoplasma contamination using MycoAlert™
590 Mycoplasma Detection Kit (Lonza, Capsugel Australia).
592 E1-E2 Transthiolation Assays
593 An Homogeneous Time-Resolved Fluorescence (HTRF) enzyme assay was employed to evaluate
594 compound activity against ATG7 as previously described (11). In this assay, a Flag-tagged ATG8 homolog
595 (GABA type A receptor-associated protein; GABARAP) is activated by ATG7 and then transthiolated to a
596 GST-tagged E2 (ATG3). The product of the enzyme reaction, Flag-GABARAP-ATG3-GST, is quantified
597 by measuring FRET between Europium-Cryptate labelled monoclonal anti-Flag M2 (CisBio International,
598 Cat# 61FG2KLB) and PHYCOLINK goat anti-GST allophycocyanin (Prozyme, PJ252p1). The activation
599 and transthiolation of ubiquitin by Ubiquitin Activating Enzyme, activation and transthiolation of NEDD8 […]
605 Activity against male gametes was assessed using the dual gamete formation assay (PfDGFA)(32). […]
609 exflagellation was recorded and quantified by automated microscopy. […]
610 express Pfs25 on their surface after 24 h at 28°C was assessed by single-image fluorescence microscopy. […]
624 falciparum (Pf3D70087/N9) on day 0. The antimalarial efficacy was assessed following administration (i.p.) […]
638 precipitated with acetonitrile and the remaining compound was assessed by LC-MS/MS in the selected reaction […]

Another data set has as its target PfYRS (Plasmodium falciparum, UniProt Q8IAR7). As to the kind of experiment: biochemical. The class given is binding. Particulars: PfYRS incubated with ML901 in the presence of Tyr, ATP and tRNATyr. The procedure: 804 An intron was detected in the PftRNATyr sequence, that was not indicated in PlasmoDB. A T7 RNA
805 polymerase promoter sequence was added to the 5’ end of the DNA sequence of P. falciparum and H.
806 sapiens tRNATyr. This DNA template and its complementary strand were custom-synthesized by Sigma-
807 Aldrich. Two oligonucleotides were annealed at 95°C for 5 min and the double-stranded DNA template
808 was used for in vitro transcription. The transcription reaction was incubated at 37°C overnight. The reaction
809 mixture consists of template DNA, T7 RNA polymerase and NTP mix as per manufacturer's instructions
810 (HiScribe™ T7 Quick High Yield RNA Synthesis Kit, NEB). On the following day, the reaction mixture
811 was treated with DNase I at 37°C for 15 min. tRNA was purified using RNA clean-up spin columns
812 (Monarch® RNA Cleanup Kit, NEB) to remove contaminants from the transcription reaction.
814 Differential scanning fluorimetry (DSF)
815 PfYRS and HsYRS at 0.1 mg/ml were incubated with various substrates at 37°C for 1-3 h. PfYRS was
816 assayed in 25 mM Tris, pH 8, 150 mM NaCl, 5 mM MgCl2 and 1 mM TCEP. HsYRS was assayed in 50
817 mM Tris, pH 7.5, 150 mM NaCl, 50 mM KCl, 5 mM MgCl2 and 1 mM TCEP. SYPRO Orange (Sigma-
818 Aldrich; 5,000X concentrate in DMSO) was added to the reaction mixture at a final concentration of 2.5X.
819 25 µL of the sample was added into each well of a 96-well qPCR plate (Applied Biosystems). The plate
820 was sealed and analysed using StepOnePlus Real-Time PCR system (Applied Biosystems). The samples
821 were heated from 20°C to 90°C with a 1% continuous gradient. The thermal unfolding curve was plotted
822 as the first derivative curve of the raw fluorescence values. The melting temperature (Tm), defined as the
823 peak of the first derivative curve, was used to assess the thermal stability of protein-ligand complexes. KD
824 values were calculated from DTm using the equation: ln(KD/[L]) = -131.5 x (∆Tm/Tm,apo) - 1.9, where [L]
825 is the concentration of ligand and T is the temperature in Kelvin (40). […]

Chain of PfYRS (Q8IAR7 entry or part of it): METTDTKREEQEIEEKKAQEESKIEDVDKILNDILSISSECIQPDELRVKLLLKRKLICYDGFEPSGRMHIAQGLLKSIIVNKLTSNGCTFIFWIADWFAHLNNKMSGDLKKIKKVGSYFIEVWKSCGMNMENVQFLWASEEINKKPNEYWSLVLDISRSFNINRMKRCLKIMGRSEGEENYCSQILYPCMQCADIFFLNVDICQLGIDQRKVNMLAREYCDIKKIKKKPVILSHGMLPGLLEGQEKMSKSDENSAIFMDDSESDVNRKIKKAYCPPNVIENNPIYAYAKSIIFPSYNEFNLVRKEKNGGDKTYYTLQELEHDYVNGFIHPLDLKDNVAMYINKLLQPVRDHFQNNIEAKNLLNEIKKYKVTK

On to `Nc1ncnc2c1c(OC(F)F)nn2[C@@H]1O[C@H](COS(N)(=O)=O)[C@@H](O)[C@H]1O` [ML901], for which the effect on parasitemia entry in data set [1] (SCID mice engrafted with P. falciparum infected human RBCs) is recorded as “reduction of parasitemia to baseline”. Also, the toxicity result in data set [1] (SCID mice) is “no evidence of toxicity”. The “increase of apparent protein melting point (Tm)” value at PfYRS was determined as 15 °C.

(Values after article PMC7613620, “Reaction hijacking of tyrosine tRNA synthetase as a whole-of-life-cycle antimalarial strategy” (Science (New York, N.Y.), 2022).)
